Measurements from article doi:10.1101/2025.03.14.643404, “A Bivalent Molecular Glue Linking Lysine Acetyltransferases to Oncogene-induced Cell Death” (bioRxiv, 2025).

Columns and labels:
[1] = test system: c-MYC mRNA; experiment: RT-qPCR of c-MYC transcripts in SUDHL5; type: cell-based, human; settings: for c-MYC repression compared with TCIP3: SUDHL5, matched concentrations, transcript or proteomic level; for effect of competitor co-treatment on c-MYC mRNA repression by TCIP3: SUDHL5, 10 nM TCIP3 plus 500 nM inhibitor, 1 h
Method: Cells were plated at 1M/mL and harvested in TRIsure (Bioline 38033). RNA was extracted using Direct-zol RNA MicroPrep columns (Zymo R2062) treated with DNAseI. cDNA was prepared (Meridian Bioscience BIO-65054) and used for qPCR (Meridian Bioscience BIO-94050) using an AppliedBiosystems QuantStudio 6Pro. Primer sequences were the following:
• c-MYC fwd: […]; • c-MYC rev: […]; • GAPDH fwd: […]; • GAPDH rev: […].

[2] = test system: BCL6-repressed GFP reporter; experiment: BCL6 reporter assay (BCL6-repressed GFP) in K422 cells; type: cell-based, human; settings: 24 h
Method: KARPAS422 cells were lentivirally transduced with a construct containing the reporter. Description of the reporter construct has been published previously. After selection, cells were plated and treated with indicated amount of compound for 24 hours. Cells were washed in 2.5% FBS/PBS, stained with 1:250 v/v of 7-AAD (BD 559925) to distinguish live from dead cells, and harvested for flow cytometry on a BD Accuri. Given the polyclonal population after transduction, the area under the curve of the histogram representing FITC signal across all live cells was calculated as an integrative measure of total GFP signal. A GFP-positive gate two standard deviations from the mean was drawn from non-transduced cells and the area past a constant threshold was calculated and normalized to the signal from cells treated with DMSO.

[3] = target: T1, BCL6^BTB (Homo sapiens, UniProt P41182); experiment: BCL6BTB nanoBRET probe displacement in HEK293T; type: cell-based; settings: compared with TCIP3
T1 construct: human BCL6 (Uniprot: P41182; aa1–129); expressed in transfected cells; host or cells: HEK293T
Method: The construct for NanoLuciferase(NanoLuc)-tagged BCL6^BTB was created as follows in a lentiviral construct: an N-terminal NanoLuc (subcloned from pNLSF-1, Promega N1351) was fused to the BTB domain of human BCL6 (Uniprot: P41182; aa1–129) with an internal GSG linker followed by a V5 tag. HEK293T cells were plated at a density of 6×10^5 cells/mL in 2 mL of DMEM/well in a tissue culture treated 6-well plate and were allowed to incubate overnight at 37 °C. The next day, each well of cells was transfected with 2 ug of NanoLuc-BCL6^BTB (renamed pNSG218) using Lipofectamine 2000. The transfected cells were allowed to incubate overnight at 37 °C. The following day, the transfected cells were trypsizined, washed with PBS, counted with Trypan Blue, and brought to a final concentration of 1.25×10^5 cells/mL in Fluorobrite DMEM (Gibco A1896701) supplemented with 10% FBS. 1 uM TNL-15 probe was added to the cells before plating 5000 cells per well in a volume of 40 uL per well in a 384-well plate. […] Data was then obtained using a PheraStar FS plate reader (BMG Labtech) measuring luminescence with 520-BP and 450-BP filters. […]
For all NanoBRET assays, a dose-response curve with 3 technical replicates was constructed for each compound, and corrected BRET ratios were calculated according to manufacturer assay protocol (Promega TM439). […]

[4] = test system: SUDHL5 cells; experiment: Global proteome profiling in SUDHL5, whole proteome; type: cell-based, human; settings: SUDHL5, 10 nM, 6 and 24 hours
Method: SUDHL5 cells (6M cells in 6 mL RPMI-1640 media supplemented with 10% FBS and 1x pen-strep) were treated with 0.1% DMSO, 10 nM TCIP3, 10 nM Neg1, 10 nM Neg2, or 250 nM dCBP1 (1000x stocks in DMSO for final 0.1% DMSO concentration) in 3 biologically independent replicates. The cells were washed twice with TBS (50 mM Tris, pH 8.5, and 150 mM NaCl) and then stored at −80 °C until use.
Lysis was performed by first thermally denaturing the samples in residual wash buffer for 5 min at 95 °C. Fresh Lysis Buffer (8 M urea, 150 mM NaCl, and 100 mM HEPES, pH 8.0, in MS-grade water) was then added, and the lysates were homogenized using needle ultrasonication and then normalized to 30 μg of 2 mg/mL by diluting with Lysis Buffer via a Bradford protein concentration assay (Bio-Rad 5000006) in technical duplicates. […]
Samples were then desalted using SOLAμ SPE HRP Peptide Desalting columns (Thermo 60209–001) with a Positive Pressure Manifold and all MS-grade reagents. […] The samples were then reconstituted in 0.1% FA in water and then analyzed by LC-MS/MS (see below).
The reconstituted desalted peptides were then analyzed using a nanoElute 2 UHPLC (Bruker Daltonics, Bremen, Germany) coupled to a timsTOF HT (Bruker Daltonics, Bremen, Germany) via a CaptiveSpray nano-electrospray source. […]

[5] = test system: SUDHL5 cells; experiment: Cell viability, 72 h compound treatment (PrestoBlue), SUDHL5; type: cell-based, human; settings: for effect of inhibitor co-treatment on TCIP3 cell killing: SUDHL5, constant 1 nM TCIP3 plus titrated inhibitor, 72 h
Method: Thirty thousand cells were seeded in 100 μl of media per well of a 96-well plate and treated with drug for the indicated times and doses. A resazurin-based indicator of cell health (PrestoBlue; P50200, Thermo Fisher) was added for 1.5 h at 37°C, at which point the fluorescence ratio at 560/590 nm was recorded (Tecan Spark). The background fluorescence was subtracted, and the signal was normalized to DMSO-treated cells. IC50 measurements on cell lines were calculated using at least three biological replicates (separate cell passages). Fit of dose–response curves to data and statistical analysis was performed using GraphPad PRISM using the four-parameter log(inhibitor) vs response function.

[6] = target: p300^Q1083R (Homo sapiens, UniProt P41182+Q09472, Q1082R); experiment: TR-FRET binary displacement assay, p300 Q1083R bromodomain; type: binding; settings: α = Kd binary/Kd ternary
Method: (§1) Drugs were digitally dispensed (Tecan D300e) into protein-containing wells, and the plate was allowed to incubate in the dark for 1 hour at room temperature. Emission at 490 nm (terbium) and 520 nm (FITC) was measured on a PHERAstar FS plate reader (BMG Labtech) upon excitation with 337 nm. The ratio of signal at 520 nm to 490 nm was calculated and normalized to DMSO-treated protein.

[7] = target: p300^Q1083A (Homo sapiens, UniProt P41182+Q09472, Q1082A); experiment: TR-FRET binary displacement assay, p300 Q1083A bromodomain; type: binding; settings: α = Kd binary/Kd ternary
Method: as §1

Structure (SMILES)	c-MYC repression compared with TCIP3 [1]	activation of GFP expression [2]	cellular binding to BCL6 BTB [3]	proteome changes relative to DMSO [4]	IC50 ([5]; Homo sapiens, SU-DHL-5, SUDHL5, 72 h, read-out: IC50 cell viability / antiproliferation) [nM]	effect of competitor co-treatment on c-MYC mRNA repression by TCIP3 [1]	effect of inhibitor co-treatment on TCIP3 cell killing [5]	cooperativity α [6]	cooperativity α [7]
CNC(=O)COc1cc2cc(Nc3nc(N4CCC(C(=O)N5CCN(CCC(=O)N6CCC(n7nc(N8CCCc9cc(-c%10cnn(C)c%10)c(C(F)F)cc98)c8c7CCN(C(=O)c7ccccc7)C8)CC6)CC5)CC4)ncc3Cl)cc(OC)c2n(C)c1=O [NEG2]	Neither GNE-781, dCBP-1, NEG1, NEG2, nor the BCL6^BTB inhibitor BI-3812 produced comparable c-MYC repression	Neither NEG1 nor NEG2 activated GFP expression	potent binders	no significant changes relative to DMSO	2100	–	–	–	–
CNC(=O)COc1cc2cc(Nc3nc(N4CCC(C(=O)N(C)C)CC4)ncc3Cl)cc(OC)c2n(C)c1=O [BI-3812]	Neither GNE-781, dCBP-1, NEG1, NEG2, nor the BCL6^BTB inhibitor BI-3812 produced comparable c-MYC repression	–	–	–	–	almost completely restored c-MYC levels to baseline	buffered the effects of TCIP3 on cell viability	–	–
CNC(=O)N1CCc2c(c(N3CCCc4cc(-c5cnn(C)c5)c(C(F)F)cc43)nn2C2CCOCC2)C1 [GNE-781]	Neither GNE-781, dCBP-1, NEG1, NEG2, nor the BCL6^BTB inhibitor BI-3812 produced comparable c-MYC repression	–	–	–	–	restored c-MYC levels to those observed with GNE-781 treatment alone	buffered the effects of TCIP3 on cell viability	~ 1.0	~ 0.88
